Laboratory results from PMC8151276, “An Integrated Approach toward NanoBRET Tracers for Analysis of GPCR Ligand Engagement” (Molecules, 2021).

Tests used:
Type in all cases: binding
AGTR1 = target: T1, AGTR1 (Homo sapiens, UniProt P30556); experiment: NanoBRET screen HiBiT-AGTR1 in HEK293
T1 construct: purchased Promega (in-house HiBiT-GPCR construct library, NanoBRET)
T1 sequence (P30556 1-359): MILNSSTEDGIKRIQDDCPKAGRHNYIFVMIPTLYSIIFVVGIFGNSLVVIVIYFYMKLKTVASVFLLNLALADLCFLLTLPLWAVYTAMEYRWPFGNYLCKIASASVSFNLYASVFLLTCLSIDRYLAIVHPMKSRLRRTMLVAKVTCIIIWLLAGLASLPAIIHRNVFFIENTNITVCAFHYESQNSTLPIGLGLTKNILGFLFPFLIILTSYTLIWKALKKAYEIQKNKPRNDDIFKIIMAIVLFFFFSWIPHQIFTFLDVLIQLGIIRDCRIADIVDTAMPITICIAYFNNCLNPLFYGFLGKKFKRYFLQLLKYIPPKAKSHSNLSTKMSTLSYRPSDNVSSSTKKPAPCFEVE
Method: (§1) Each tracer candidate was screened across the entire library of HiBiT-GPCR constructs using NanoBRET as the detection modality. As depicted in Figure 4A, the specificity of interactions was evaluated through decrease in BRET due to competitive displacement of a bound tracer by excess parental compound. Each tracer was analyzed for binding to each HiBiT-GPCR fusion in the absence and in the presence of competing parental compound. Briefly, HEK293 cells were transfected with HiBiT-GPCR constructs diluted into promoterless DNA to reduce expression and maximize translocation to the cell surface. Each tracer candidate was then screened at concentrations of 1 μM and 0.1 μM across cells expressing these fusions. Cells were treated for 1.5 h with tracer either alone or in the presence of 20 μM competing parental compound (i.e., control). BRET was measured upon addition of purified LgBiT and subsequent complementation with HiBiT genetically fused to a GPCR. The specificity of interactions was assessed through a decrease in BRET signal due to competitive displacement of the bound tracer. To further gauge the robustness of these interactions, the fold response over the control (i.e., BRETtracer/BRETcontrol) was calculated. We chose a 1.5-fold response, which translates to ≥7-fold signal over noise as the minimal threshold required to score an interaction as positive. […]. Below we highlight the screening results obtained for our exemplary fluorescent tracers based on Clozapine, Amitriptyline and AZD1283.
(§2) HiBiT-GPCR DNA constructs were diluted in 10 mM Tris pH 8 to a final concentration of 0.01 μg/μL, arrayed in 96-well plates and stored at −20 °C. For transfection, HEK293 cells were suspended in Opti-MEM (without phenol red) supplemented with 2% fetal bovine serum (Seradigm) and 100 units/mL penicillin–streptomycin (Gibco) at a final concentration of 220,000 cells/mL and dispensed into white 96-well plates at 90 μL/well. Subsequent transfections and screens were carried using an Agilent Bravo Automated Liquid Handling Platform. First, the 96-well HiBiT DNA arrays were diluted 25-fold in Opti-MEM (without serum or phenol red) to a final concentration of 0.0004 μg/μL and 20 μL of the diluted DNAs were transferred into new 96-well plates. Next, promoterless carrier DNA (1 μg/μL) was diluted 25-fold (0.04 μg/μL) and then dispensed into the diluted arrays at 20 μL/well. Following brief mixing, Viafect transfection reagent (Promega) diluted 16-fold into Opti-MEM was dispensed into the plates at 40 μL/well. After mixing by pipetting, plates were incubated for 10 min on the pipetting station deck. The DNA-transfection reagent complexes were then added to plates containing cells. To facilitate the screen, 10 μL of DNA-transfection reagent complexes were added in duplicates to the top 4 and bottom 4 rows, resulting in two identical 48-well arrays per plate. Plates with transfected cells were incubated for 18–20 h at 37 °C/5% CO2. A screen of each tracer across the entire library using two different concentrations requires duplicate plates of transfected cells. Depending on the number of tracers being screened, transfections can be scaled up using the same ratios. The next day, for each tracer, four 20× screening solutions in tracer dilution buffer (Promega) were prepared: two duplicates at final concentration of 20 μM and two duplicates at a final concentration of 2 μM. A competing unmodified compound was added to one of each duplicate at a final concentration of 400 μM. The four resulting solutions were diluted 4-fold in Opti-MEM without serum or phenol red to generate 5× solutions (5 µM and 0.5 µM tracer +/− 100 μM competing compound). To screen the library, a BioTek MultiFlo FX liquid dispenser was used to dispense 22.5 µL of tracer solution to the top 4 rows and 22.5 µL tracer + competing compound solution to the 4 bottom rows. Plates were briefly mixed on an orbital shaker and incubated for 1.5 h at room temperature. […]

CCR2 = target: T2, CCR2 (Homo sapiens, UniProt P41597); experiment: NanoBRET screen HiBiT-CCR2 in HEK293
T2 construct: purchased Promega (in-house HiBiT-GPCR construct library, NanoBRET)
Method: as §1, §2

P2RY4 = target: T3, P2RY4 (Homo sapiens, UniProt P51582); experiment: NanoBRET screen HiBiT-P2RY4 in HEK293
T3 construct: purchased Promega (in-house HiBiT-GPCR construct library, NanoBRET)
Method: as §1, §2

MCHR1 = target: T4, MCHR1 (Homo sapiens, UniProt Q99705); experiment: NanoBRET screen HiBiT-MCHR1 in HEK293
T4 construct: purchased Promega (in-house HiBiT-GPCR construct library, NanoBRET)
Method: as §1, §2

RXFP2 = target: T5, RXFP2 (Homo sapiens, UniProt Q8WXD0); experiment: NanoBRET screen HiBiT-RXFP2 in HEK293
T5 construct: purchased Promega (in-house HiBiT-GPCR construct library, NanoBRET)
Method: as §1, §2

SSTR5 = target: T6, SSTR5 (Homo sapiens, UniProt P35346); experiment: NanoBRET screen HiBiT-SSTR5 in HEK293
T6 construct: purchased Promega (in-house HiBiT-GPCR construct library, NanoBRET)
Method: as §1, §2

PTGDR2 = target: T7, PTGDR2 (Homo sapiens, UniProt Q9Y5Y4); experiment: NanoBRET screen HiBiT-PTGDR2 in HEK293
T7 construct: purchased Promega (in-house HiBiT-GPCR construct library, NanoBRET)
T7 sequence (Q9Y5Y4 1-395): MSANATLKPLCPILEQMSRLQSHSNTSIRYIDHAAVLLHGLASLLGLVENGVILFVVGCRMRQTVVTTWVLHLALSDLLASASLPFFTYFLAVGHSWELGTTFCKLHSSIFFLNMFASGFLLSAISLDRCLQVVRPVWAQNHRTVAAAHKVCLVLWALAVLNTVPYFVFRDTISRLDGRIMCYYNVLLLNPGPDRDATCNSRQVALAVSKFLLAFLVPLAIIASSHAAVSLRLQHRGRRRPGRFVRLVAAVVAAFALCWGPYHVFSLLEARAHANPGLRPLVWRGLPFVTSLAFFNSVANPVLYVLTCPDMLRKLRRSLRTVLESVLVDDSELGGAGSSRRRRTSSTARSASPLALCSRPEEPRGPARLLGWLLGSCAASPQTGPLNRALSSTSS
Method: as §1, §2

T3 sequence (P51582 whole entry): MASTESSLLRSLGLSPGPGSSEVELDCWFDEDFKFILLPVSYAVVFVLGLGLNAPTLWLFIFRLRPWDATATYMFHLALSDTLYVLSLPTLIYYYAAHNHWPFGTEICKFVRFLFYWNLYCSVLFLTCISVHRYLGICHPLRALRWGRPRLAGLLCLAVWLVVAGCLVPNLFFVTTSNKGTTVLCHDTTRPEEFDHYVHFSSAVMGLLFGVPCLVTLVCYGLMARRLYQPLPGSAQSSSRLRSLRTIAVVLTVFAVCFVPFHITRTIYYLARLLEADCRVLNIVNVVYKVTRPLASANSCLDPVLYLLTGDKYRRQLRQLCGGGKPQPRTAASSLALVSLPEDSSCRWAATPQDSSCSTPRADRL
T4 sequence (Q99705 whole entry): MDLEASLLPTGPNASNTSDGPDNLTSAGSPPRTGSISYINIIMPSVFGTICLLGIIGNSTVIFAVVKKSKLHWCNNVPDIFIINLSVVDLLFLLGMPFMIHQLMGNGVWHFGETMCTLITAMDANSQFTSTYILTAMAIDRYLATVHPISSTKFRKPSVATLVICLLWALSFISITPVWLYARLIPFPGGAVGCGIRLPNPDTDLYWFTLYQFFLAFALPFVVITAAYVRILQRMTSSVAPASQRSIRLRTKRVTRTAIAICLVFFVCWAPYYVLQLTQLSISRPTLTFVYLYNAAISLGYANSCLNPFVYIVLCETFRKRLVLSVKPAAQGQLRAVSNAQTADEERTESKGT
T2 sequence (P41597 whole entry): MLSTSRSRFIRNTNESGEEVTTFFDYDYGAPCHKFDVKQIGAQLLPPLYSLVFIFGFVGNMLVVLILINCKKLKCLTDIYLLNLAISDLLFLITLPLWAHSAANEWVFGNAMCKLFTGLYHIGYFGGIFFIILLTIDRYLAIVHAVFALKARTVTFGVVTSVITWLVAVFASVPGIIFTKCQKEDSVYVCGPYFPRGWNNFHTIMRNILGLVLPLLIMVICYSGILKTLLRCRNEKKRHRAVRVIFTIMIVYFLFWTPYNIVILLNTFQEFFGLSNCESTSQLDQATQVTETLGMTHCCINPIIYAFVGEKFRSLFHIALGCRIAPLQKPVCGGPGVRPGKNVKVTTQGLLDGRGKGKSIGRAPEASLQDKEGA
T5 sequence (Q8WXD0 whole entry): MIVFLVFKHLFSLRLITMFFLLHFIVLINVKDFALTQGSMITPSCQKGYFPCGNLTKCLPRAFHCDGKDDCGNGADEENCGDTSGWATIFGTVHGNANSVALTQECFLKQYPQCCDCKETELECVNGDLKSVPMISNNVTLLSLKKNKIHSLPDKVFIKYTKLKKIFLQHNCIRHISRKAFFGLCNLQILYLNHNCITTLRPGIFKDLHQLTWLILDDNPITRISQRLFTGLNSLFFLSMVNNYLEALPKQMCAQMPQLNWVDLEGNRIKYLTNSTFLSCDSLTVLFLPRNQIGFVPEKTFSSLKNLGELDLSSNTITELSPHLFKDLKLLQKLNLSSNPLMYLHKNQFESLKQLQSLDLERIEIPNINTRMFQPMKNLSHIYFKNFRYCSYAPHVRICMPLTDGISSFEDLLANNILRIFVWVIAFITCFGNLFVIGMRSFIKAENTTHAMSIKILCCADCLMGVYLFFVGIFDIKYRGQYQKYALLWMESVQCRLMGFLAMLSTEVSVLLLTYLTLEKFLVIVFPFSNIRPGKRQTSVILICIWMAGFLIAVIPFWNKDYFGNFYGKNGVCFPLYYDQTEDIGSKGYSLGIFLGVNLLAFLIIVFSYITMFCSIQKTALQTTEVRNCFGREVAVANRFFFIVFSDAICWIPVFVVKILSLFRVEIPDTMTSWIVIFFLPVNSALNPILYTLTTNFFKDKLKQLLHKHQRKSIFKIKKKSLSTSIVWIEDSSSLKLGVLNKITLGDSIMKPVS
T6 sequence (P35346 whole entry): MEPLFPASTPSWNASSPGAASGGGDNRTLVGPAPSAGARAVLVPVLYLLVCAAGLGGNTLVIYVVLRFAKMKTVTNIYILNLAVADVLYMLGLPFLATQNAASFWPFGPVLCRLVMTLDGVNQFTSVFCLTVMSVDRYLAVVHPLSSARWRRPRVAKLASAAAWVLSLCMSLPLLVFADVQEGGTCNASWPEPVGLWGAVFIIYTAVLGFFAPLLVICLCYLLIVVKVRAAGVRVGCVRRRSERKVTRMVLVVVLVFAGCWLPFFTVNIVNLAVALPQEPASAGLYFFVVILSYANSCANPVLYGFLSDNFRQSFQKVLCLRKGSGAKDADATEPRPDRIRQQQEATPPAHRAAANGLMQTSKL

| SMILES | NanoBRET Fold Response (AGTR1; AGTR1, tracer 0.1μM) | NanoBRET Fold Response (AGTR1; AGTR1, tracer 1μM) | NanoBRET Fold Response (CCR2; CCR2, tracer 0.1μM) | NanoBRET Fold Response (CCR2; CCR2, tracer 1μM) | NanoBRET Fold Response (P2RY4; P2RY4, tracer 0.1μM) | NanoBRET Fold Response (P2RY4; P2RY4, tracer 1μM) | NanoBRET Fold Response (MCHR1; MCHR1, tracer 0.1μM) | NanoBRET Fold Response (MCHR1; MCHR1, tracer 1μM) | NanoBRET Fold Response (RXFP2; RXFP2, tracer 0.1μM) | NanoBRET Fold Response (RXFP2; RXFP2, tracer 1μM) | NanoBRET Fold Response (SSTR5; SSTR5, tracer 0.1μM) | NanoBRET Fold Response (SSTR5; SSTR5, tracer 1μM) | NanoBRET Fold Response (PTGDR2; PTGDR2, tracer 0.1μM) | NanoBRET Fold Response (PTGDR2; PTGDR2, tracer 1μM) | further results |
| --- | --- | --- | --- | --- | --- | --- | --- | --- | --- | --- | --- | --- | --- | --- | --- |
| O=C(CCc1ccc2n1[B-](F)(F)[N+]1=C(c3ccc[nH]3)C=CC1=C2)NCc1ccc(C(=O)NCCOCCOCCNCC(O)COc2cccc3ccccc23)cc1 (centres unmarked) [Propranolol-3-NB590] |  |  |  |  |  |  |  |  |  |  |  |  |  |  | NanoBRET Fold Response (AGTR1; AGTR1, 0.1μM): 1.04; NanoBRET Fold Response (AGTR1; AGTR1, 1μM): 1.07; NanoBRET Fold Response (CCR2; CCR2, 0.1μM): 0.99; NanoBRET Fold Response (CCR2; CCR2, 1μM): 1.19; NanoBRET Fold Response (P2RY4; P2RY4, 0.1μM): 1.03; NanoBRET Fold Response (P2RY4; P2RY4, 1μM): 0.92; NanoBRET Fold Response (MCHR1; MCHR1, 0.1μM): 0.96; NanoBRET Fold Response (MCHR1; MCHR1, 1μM): 1.03; NanoBRET Fold Response (RXFP2; RXFP2, 0.1μM): 0.27; NanoBRET Fold Response (RXFP2; RXFP2, 1μM): 0.78; NanoBRET Fold Response (SSTR5; SSTR5, 0.1μM): 1.01; NanoBRET Fold Response (SSTR5; SSTR5, 1μM): 1.02; NanoBRET Fold Response (PTGDR2; PTGDR2, 0.1μM): 0.96; NanoBRET Fold Response (PTGDR2; PTGDR2, 1μM): 1.06 |
| O=C(CCc1ccc2n1[B-](F)(F)[N+]1=C(c3ccc[nH]3)C=CC1=C2)NCc1ccc(C(=O)NCCOCCC(=O)N[C@@H]2CC[C@@]3(O)[C@H]4Cc5ccc(O)c6c5[C@@]3(CCN4CC3CC3)[C@H]2O6)cc1 [Naltrexone-3-NB590] | 1.07 | 0.93 | 1.12 | 0.70 | 1.32 | 0.88 | 1.07 | 0.92 | 1.31 | 0.72 | 0.96 | 0.96 | 0.98 | 1.00 |  |
| N#CN=C(NCCCOc1cccc(CN2CCCCC2)c1)NCCNC(=O)CCOCCOCCOCCOCCNC(=O)CCc1ccc2n1[B-](F)(F)[N+]1=C(c3ccc[nH]3)C=CC1=C2 [Aminopotentidine-2-NB590] | 1.00 | 0.96 | 0.93 | 0.98 | 1.09 | 1.07 | 0.99 | 0.95 | 0.83 | 0.83 | 0.97 | 1.00 | 0.98 | 0.48 |  |
| COc1ccc2c(n1)c(CCNC(C)=O)cn2CCNC(=O)CCc1ccc2n1[B-](F)(F)[N+]1=C(c3ccc[nH]3)C=CC1=C2 [Azamelatonin-1-NB590] |  |  |  |  |  |  |  |  |  |  |  |  |  |  | NanoBRET Fold Response (AGTR1; 0.1μM tracer): 0.78; NanoBRET Fold Response (AGTR1; 1μM tracer): 1.07; NanoBRET Fold Response (CCR2; 0.1μM tracer): 1.06; NanoBRET Fold Response (CCR2; 1μM tracer): 0.97; NanoBRET Fold Response (P2RY4; 0.1μM tracer): 1.10; NanoBRET Fold Response (P2RY4; 1μM tracer): 1.10; NanoBRET Fold Response (MCHR1; 0.1μM tracer): 0.96; NanoBRET Fold Response (MCHR1; 1μM tracer): 0.84; NanoBRET Fold Response (RXFP2; 0.1μM tracer): 1.10; NanoBRET Fold Response (RXFP2; 1μM tracer): 1.34; NanoBRET Fold Response (SSTR5; 0.1μM tracer): 0.82; NanoBRET Fold Response (SSTR5; 1μM tracer): 0.99; NanoBRET Fold Response (PTGDR2; 0.1μM tracer): 1.08; NanoBRET Fold Response (PTGDR2; 1μM tracer): 1.09 |
| CC(C)N(CC[C@H](c1ccccc1)c1cc(CCNC(=O)c2ccc(CNC(=O)CCc3ccc4n3[B-](F)(F)[N+]3=C(c5ccc[nH]5)C=CC3=C4)cc2)ccc1O)C(C)C [Tolterodine-BZ-NB590] | 1.06 | 1.00 | 0.99 | 0.89 | 0.97 | 1.08 | 0.83 | 0.95 | 0.34 | 0.83 | 1.08 | 1.04 | 0.98 | 0.96 |  |
| CN1CCN(C2=Nc3cc(Cl)ccc3Nc3ccc(CNC(=O)CCOCCOCCOCCOCCNC(=O)CCc4ccc5n4[B-](F)(F)[N+]4=C(c6ccc[nH]6)C=CC4=C5)cc32)CC1 [Clozapine-b-2-NB590] |  |  |  |  |  |  |  |  |  |  |  |  |  |  | NanoBRET Fold Response (AGTR1; AGTR1, 0.1μM tracer): 1.01; NanoBRET Fold Response (AGTR1; AGTR1, 1μM tracer): 1.06; NanoBRET Fold Response (CCR2; CCR2, 0.1μM tracer): 1.01; NanoBRET Fold Response (CCR2; CCR2, 1μM tracer): 0.93; NanoBRET Fold Response (P2RY4; P2RY4, 0.1μM tracer): 0.97; NanoBRET Fold Response (P2RY4; P2RY4, 1μM tracer): 0.97; NanoBRET Fold Response (MCHR1; MCHR1, 0.1μM tracer): 0.96; NanoBRET Fold Response (MCHR1; MCHR1, 1μM tracer): 1.00; NanoBRET Fold Response (RXFP2; RXFP2, 0.1μM tracer): 1.04; NanoBRET Fold Response (SSTR5; SSTR5, 0.1μM tracer): 1.03; NanoBRET Fold Response (SSTR5; SSTR5, 1μM tracer): 1.00; NanoBRET Fold Response (PTGDR2; PTGDR2, 0.1μM tracer): 1.01; NanoBRET Fold Response (PTGDR2; PTGDR2, 1μM tracer): 1.02 |
